Assay results as given in patent US10941157B2, “Pesticidal compositions and uses thereof” (Gilead Apollo, LLC, priority 2015, dated 2021).
In brackets after ≈: the same amount, converted by molar mass. Like-named read-outs stand apart in the source and are kept apart here.

Experiments:
Type in all cases: cell-based
[1] = test system: Phytophthora capsici (Pc); assay: In vitro pathogen growth inhibition assay, Pc; details: 48 h
Outline: (§1)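 Value reported is the compound concentration reaching ≥90% growth inhibition, from OD readings at 24 and 48 h after blank subtraction, confirmed visually. Inoculum was spores diluted in 17% V8 medium, except Rs, using 1.5 mm mycelial plugs in ¼ PDB; actual compound concentration corrected via OD600.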

[2] = test system: Rhizoctonia solani (Rs); assay: In vitro pathogen growth inhibition assay, Rs (mycelial plugs); details: Rhizoctonia solani, 48 h
Outline: as §1

[3] = test system: Fusarium moniliforme (Fm); assay: In vitro pathogen growth inhibition assay, Fm; details: Fusarium verticillioides
Outline: (§2)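 Spores in 17% V8 liquid medium, or 1.5 mm Rs mycelial plugs in ¼ PDB, incubated with compound; final concentration checked by OD600 for precipitation. OD readings at 24 and 48 h, blank-subtracted, plus visual ratings; value is concentration giving ≥90% growth inhibition.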

[4] = test system: Diplodia maydis (Dm); assay: In vitro pathogen growth inhibition assay, Dm; details: Stenocarpella maydis, 48 h
Outline: as §1

[5] = test system: Botrtyis cinerea (Bc); assay: In vitro pathogen growth inhibition assay, Bc; details: 48 h
Outline: as §2

[6] = test system: Fusarium virguliforme (Fv); assay: In vitro pathogen growth inhibition assay, Fv
Outline: as §1

[7] = test system: Septoria tritici (St); assay: In vitro pathogen growth inhibition assay, St; details: Zymoseptoria tritici, 48 h
Outline: as §2

[8] = test system: Collectotrichum graminicola (Cg); assay: In vitro pathogen growth inhibition assay, Cg; details: 48 h
Outline: as §2

[9] = ≥90% growth inhibition, 48 hours, vs 2% DMSO control, read-out: Compound Concentration (ppm) sufficient for ≥90% inhibition of Pc
[10] = ≥90% growth inhibition, mycelial plugs, 48 hours, vs 2% DMSO control, read-out: Compound Concentration (ppm) sufficient for ≥90% inhibition of Rs
[11] = ≥90% growth inhibition, 48 hours, vs 2% DMSO control, read-out: Compound Concentration (ppm) sufficient for ≥90% inhibition of Fm
[12] = ≥90% growth inhibition, 48 hours, vs 2% DMSO control, read-out: Compound Concentration (ppm) sufficient for ≥90% inhibition of Dm
[13] = ≥90% growth inhibition, 48 hours, vs 2% DMSO control, read-out: Compound Concentration (ppm) sufficient for ≥90% inhibition of Bc
[14] = ≥90% growth inhibition, 48 hours, vs 2% DMSO control, read-out: Compound Concentration (ppm) sufficient for ≥90% inhibition of Fv
[15] = ≥90% growth inhibition, 48 hours, vs 2% DMSO control, read-out: Compound Concentration (ppm) sufficient for ≥90% inhibition of St
[16] = ≥90% growth inhibition, 48 hours, vs 2% DMSO control, read-out: Compound Concentration (ppm) sufficient for ≥90% inhibition of Cg
[17] = concentration sufficient to ≥90% inhibition of growth, 48 hours vs 2% DMSO control, read-out: Compound Concentration (ppm) for ≥90% inhibition, Pc
[18] = concentration sufficient to ≥90% inhibition of growth, 48 hours vs 2% DMSO control, read-out: Compound Concentration (ppm) for ≥90% inhibition, Rs
[19] = concentration sufficient to ≥90% inhibition of growth, 48 hours vs 2% DMSO control, read-out: Compound Concentration (ppm) for ≥90% inhibition, Fm
[20] = concentration sufficient to ≥90% inhibition of growth, 48 hours vs 2% DMSO control, read-out: Compound Concentration (ppm) for ≥90% inhibition, Dm
[21] = concentration sufficient to ≥90% inhibition of growth, 48 hours vs 2% DMSO control, read-out: Compound Concentration (ppm) for ≥90% inhibition, Bc
[22] = concentration sufficient to ≥90% inhibition of growth, 48 hours vs 2% DMSO control, read-out: Compound Concentration (ppm) for ≥90% inhibition, Fv
[23] = concentration sufficient to ≥90% inhibition of growth, 48 hours vs 2% DMSO control, read-out: Compound Concentration (ppm) for ≥90% inhibition, St
[24] = concentration sufficient to ≥90% inhibition of growth, 48 hours vs 2% DMSO control, read-out: Compound Concentration (ppm) for ≥90% inhibition, Cg

SMILES | IC90 [1, 9] [µg/mL] | IC90 [2, 10] [µg/mL] | IC90 [3, 11] [µg/mL] | IC90 [4, 12] [µg/mL] | IC90 [5, 13] [µg/mL] | IC90 [6, 14] [µg/mL] | IC90 [7, 15] [µg/mL] | IC90 [8, 16] [µg/mL] | IC90 [1, 17] [µg/mL] | IC90 [2, 18] [µg/mL] | IC90 [3, 19] [µg/mL] | IC90 [4, 20] [µg/mL] | IC90 [5, 21] [µg/mL] | IC90 [6, 22] [µg/mL] | IC90 [7, 23] [µg/mL] | IC90 [8, 24] [µg/mL]
CCOC(=O)c1sc2c(c1C)c(=O)n([C@H](C)C(=O)N1CCCC1)c(=O)n2C[C@H](OCCC#N)c1cc(F)ccc1OC [Compound I-226] | > 50 | 0.08 (≈ 0.133 µM) | 0.08 (≈ 0.133 µM) | ≥ 2 | 2 (≈ 3.33 µM) | 2 (≈ 3.33 µM) | > 50 | 2 (≈ 3.33 µM) |  |  |  |  |  |  |  | 
CCOC(=O)c1sc2c(c1C)c(=O)n([C@@H](C)C(N)=O)c(=O)n2C[C@H](OCCC#N)c1cc(F)ccc1OC [Compound I-227] |  |  |  |  |  |  |  |  | > 50 | 0.4 (≈ 0.732 µM) | 10 (≈ 18.3 µM) | > 50 | 50 (≈ 91.5 µM) | > 50 | > 50 | > 50
CCOC(=O)c1sc2c(c1C)c(=O)n([C@H](C)C(N)=O)c(=O)n2C[C@H](OCCC#N)c1cc(F)ccc1OC [Compound I-228] |  |  |  |  |  |  |  |  | > 50 | 2 (≈ 3.66 µM) | 10 (≈ 18.3 µM) | > 50 | 10 (≈ 18.3 µM) | > 50 | > 50 | > 50
CCOC(=O)c1sc2c(c1C)c(=O)n([C@@H](C)C(=O)N(C)C(C)C)c(=O)n2C[C@H](OCCC#N)c1cc(F)ccc1OC [Compound I-230] | > 50 | 0.08 (≈ 0.133 µM) | 0.4 (≈ 0.664 µM) | ≥ 10 | 2 (≈ 3.32 µM) | 0.4 (≈ 0.664 µM) | ≥ 10 | 10 (≈ 16.6 µM) |  |  |  |  |  |  |  | 
CCNC(=O)C(C)(C)n1c(=O)c2c(C)c(-n3cccn3)sc2n(C[C@H](OCCC#N)c2ccccc2OC)c1=O [Compound I-232] | > 50 | 2 (≈ 3.54 µM) | 2 (≈ 3.54 µM) | 50 (≈ 88.5 µM) | 10 (≈ 17.7 µM) | 0.4 (≈ 0.708 µM) | > 50 | 10 (≈ 17.7 µM) |  |  |  |  |  |  |  | 
CCNC(=O)C(C)(C)n1c(=O)c2c(C)c(-n3cccn3)sc2n(C[C@H](OCCC#N)c2cc(F)ccc2OC)c1=O [Compound I-235] | > 50 | 2 (≈ 3.43 µM) | 0.4 (≈ 0.687 µM) | ≥ 2 | 2 (≈ 3.43 µM) | 2 (≈ 3.43 µM) | > 50 | 2 (≈ 3.43 µM) |  |  |  |  |  |  |  | 
COc1ccccc1[C@H](Cn1c(=O)n([C@H](C)C(=O)N(C)C(C)C)c(=O)c2c(C)c(-n3nccn3)sc21)OCCC#N [Compound I-238] | > 50 | 10 (≈ 17.3 µM) | 2 (≈ 3.45 µM) | 10 (≈ 17.3 µM) | 2 (≈ 3.45 µM) | 10 (≈ 17.3 µM) | > 50 | 10 (≈ 17.3 µM) |  |  |  |  |  |  |  | 
COc1ccccc1[C@H](Cn1c(=O)n([C@H](C)C(=O)N(C)C(C)C)c(=O)c2c(C)c(-n3cccn3)sc21)OCCC#N [Compound I-242] | > 50 | 2 (≈ 3.46 µM) | 0.4 (≈ 0.691 µM) | 2 (≈ 3.46 µM) | 2 (≈ 3.46 µM) | 2 (≈ 3.46 µM) | ≥ 50 | 2 (≈ 3.46 µM) |  |  |  |  |  |  |  | 
COc1ccc(F)cc1[C@H](Cn1c(=O)n([C@@H](C)C(=O)N(C)C(C)C)c(=O)c2c(C)c(-n3cccn3)sc21)OCCC#N [Compound I-243] | > 50 | 2 (≈ 3.35 µM) | 2 (≈ 3.35 µM) | 10 (≈ 16.8 µM) | 10 (≈ 16.8 µM) | 50 (≈ 83.8 µM) | ≥ 50 | 2 (≈ 3.35 µM) |  |  |  |  |  |  |  | 
COc1ccc(F)cc1[C@H](Cn1c(=O)n([C@@H](C)C(=O)N(C)C(C)C)c(=O)c2c(C)c(-n3cccn3)sc21)OCCO [Compound I-244] | 10 (≈ 17 µM) | 0.4 (≈ 0.681 µM) | 0.4 (≈ 0.681 µM) | 10 (≈ 17 µM) | 2 (≈ 3.4 µM) | 2 (≈ 3.4 µM) | ≥ 50 | 2 (≈ 3.4 µM) |  |  |  |  |  |  |  | 
Cc1ccc(F)cc1[C@H](Cn1c(=O)n(C(C)(C)C(=O)NC(C)C)c(=O)c2c(C)c(-n3nccn3)sc21)OCCO [Compound I-245] | 50 (≈ 87.3 µM) | 0.08 (≈ 0.14 µM) | 0.08 (≈ 0.14 µM) | 2 (≈ 3.49 µM) | 0.4 (≈ 0.698 µM) | 0.08 (≈ 0.14 µM) | ≥ 2 | 0.4 (≈ 0.698 µM) |  |  |  |  |  |  |  | 
CCc1ccc(F)cc1[C@H](Cn1c(=O)n(C(C)(C)C(=O)NC(C)C)c(=O)c2c(C)c(-n3nccn3)sc21)OCCOC [Compound I-247] | > 50 | 2 (≈ 3.33 µM) | 0.08 (≈ 0.133 µM) | 2 (≈ 3.33 µM) | 0.4 (≈ 0.666 µM) | 0.4 (≈ 0.666 µM) | ≥ 10 | 0.4 (≈ 0.666 µM) |  |  |  |  |  |  |  | 
COCCO[C@@H](Cn1c(=O)n(C(C)(C)C(=O)NC(C)C)c(=O)c2c(C)c(-n3nccn3)sc21)c1cc(F)ccc1C [Compound I-248] | > 50 | 10 (≈ 17 µM) | 0.4 (≈ 0.682 µM) | ≥ 10 | 2 (≈ 3.41 µM) | 0.4 (≈ 0.682 µM) | ≥ 10 | 2 (≈ 3.41 µM) |  |  |  |  |  |  |  | 
COCCO[C@@H](Cn1c(=O)n(C(C)(C)C(=O)N2CCCC2)c(=O)c2c(C)c(-n3nccn3)sc21)c1cc(F)ccc1C [Compound I-249] | > 50 | 10 (≈ 16.7 µM) | 2 (≈ 3.34 µM) | ≥ 10 | 2 (≈ 3.34 µM) | 2 (≈ 3.34 µM) | > 50 | 2 (≈ 3.34 µM) |  |  |  |  |  |  |  | 
COc1ccc(F)cc1[C@H](Cn1c(=O)n([C@H](C)C(=O)N(C)C(C)C)c(=O)c2c(C)c(-n3cccn3)sc21)OCCO [Compound I-250] | > 50 | 2 (≈ 3.4 µM) | 2 (≈ 3.4 µM) | > 50 | 2 (≈ 3.4 µM) | 2 (≈ 3.4 µM) | > 50 | 10 (≈ 17 µM) |  |  |  |  |  |  |  | 
COc1ccc(F)cc1[C@H](Cn1c(=O)n([C@@H](C)C(=O)NC(C)C)c(=O)c2c(C)c(-n3nccn3)sc21)OCC(C)(C)C#N [Compound I-254] | > 50 | > 50 | 2 (≈ 3.27 µM) | ≥ 10 | 2 (≈ 3.27 µM) | > 50 | > 50 | > 50 |  |  |  |  |  |  |  | 
